The values below come from patent US20130303460A1, “PEPTIDES AND COMPOSITIONS FOR THE TREATMENT OF NEUROECTODERMAL DERIVED TUMORS AND RETINOBLASTOMA” (Biokine Therapeutics Ltd., priority 2011, published 2013).

The subject of one test is Y79 Retinoblastoma cells. The test is described as follows: Survival of Y79 retinoblastoma cells (PI staining, FACS). The class given is cell-based, human. The conditions noted are these: 4, 8, 20 and 40 micromolar, 24 hr; PI staining FACS (FIG. 3). On the procedure:
Y79: Retinoblastoma cells from primary tumor with familial history of Retinoblastoma;
All cell lines were cultured in RPMI1640 (Gibco BRL life technologies)+10% FCS, 1% L-Glutamine, 1% PS (Penicillin, Streptomycin) (Biological Industries, Kibbutz Beth Haemek, Israel) at 37° C., 5% CO2.
4F-benzoyl-TN14003 (designated BKT140) effect on Y79 Retinoblastoma cells survival.

Test [1] has as its system Neuroblastoma cancer cell lines (SHY-5Y, SK-N-BE and NHH-NB-11). The test is described as follows: Neuroblastoma cell viability, CellTiter 96 AQueous Non-Radioactive Cell Proliferation Assay. The class given is cell-based, human. The conditions noted are these: 72 hours, 10% FCS; compared to other CXCR4 antagonists (e.g. AMD3100) (FIG. 4). On the procedure: Neuroblastoma cancer cell lines (SHY-5Y, SK-N-BE and NHH-NB-11, FIGS. 4A, 4B, and 4C, respectively) were seeded at 2×10^4 viable cells/100 μl per well into a 96-well plate in triplicates in a medium supplemented with 10% FCS and incubated with different concentrations of BKT140, PLK1, AurA or AMD3100 for 72 hours. The plate was than tested for cell viability using the CellTiter 96® AQueous Non-Radioactive Cell Proliferation Assay.

Test [2] shares this test system. Put plainly: Neuroblastoma cell death, PI+ cells by FACS and morphological assays. The settings on record: 1% FCS, twenty hr, SK-N-BE and NHH-NB-11 (FIGS. 5, 6). The test is classed as cell-based, human. As to the method:
The effect of BKT140 or AMD3100 on the proliferation of neuroblastoma cancer cell lines was tested by seeding the cells at 2×10^4 cells/1 ml per well into a 24-well plate in medium supplemented with 1% FCS. Twenty hr later the cells stained with PI (Sigma, St. Louis, Mo.), and the number of PI+cells (death cells) was determined using FACS analysis (as described above) (see, FIG. 6A).
For orientation: A flow cytometer gives signals particle by particle.

Test [3] concerns epithelial tumor cells (e.g., breast and prostate carcinoma and glioblastoma). The test is described as follows: Effect on epithelial tumor cells. The class given is cell-based. The conditions noted are these: summary statement, example not given.
The subject of test [4] is Neuroblastoma tumor cells injected into the adrenal. Put plainly: Neuroblastoma tumor growth in mice, established (treatment) disease model. The class given is in vivo, NOD/SCID mice. The settings on record: subcutaneously 300 μg per mouse until day 30, started when tumor size reached ~0.04 cm^2 (FIG. 8). As to the method:
(§1) NOD/SCID mice were maintained under defined flora conditions at the Hebrew University Pathogen-Free Animal Facility. All experiments were approved by the Animal Care Committee of the Hebrew University. 10^6 Neuroblastoma tumor cells were injected into the adrenal of the mice ([…] per mouse). As control, mice were treated with PBS. Tumor growth was monitored weekly. MRI testing was performed on a horizontal 4.7 T Bruker Biospec spectrometer, using a birdcage coil.

For test [5] the test system is unchanged. Put plainly: Neuroblastoma tumor growth in mice, residual disease model. The test is classed as in vivo, NOD/SCID mice. The settings on record: 300 μg per mouse from day 3 until day 30 after inoculation; residual disease model (FIG. 7). On the procedure: as §1

As for “4F-benzoyl-Arg-Arg-Nal-Cys-Tyr-Cit-Lys-DLys-Pro-Tyr-Arg-Cit-Cys-Arg-NH2 [4F-benzoyl-TN14003]”, the “cell death / survival of Y79 retinoblastoma cells” value in the test with Y79 Retinoblastoma cells is “stimulate cell death of retinoblastoma cells”. Besides, the “cell viability of neuroblastoma cells” value in test [1] is on record as “remarkably low cell viability”. Moreover, the “neuroblastoma cell death (PI+ cells)” value in test [2] is reported as “stimulate neuroblastoma cell death”. Also, the “growth of epithelial tumor cells” value in test [3] (breast and prostate carcinoma and glioblastoma) is listed as “in some cases even stimulated the growth of epithelial tumor cells”. Moreover, the “epithelial tumor cell death” value in test [3] was “did not induce epithelial tumor cell death”. In addition, the tumor growth entry is “delayed and in some cases inhibited tumor growth” in test [4]; “delayed and in some cases inhibited tumor growth” in test [5].
